{"source": "patent US9428452B2", "about": "“Compounds” (Glaxo Group Limited, priority 2012, dated 2016)", "type_in_all_cases": "cell-based", "key": {"[1]": {"system": "IL-17A secreted from antiCD3/CD28 stimulated Peripheral Blood Mononuclear cells (PBMC)", "assay": "Peripheral Blood Mononucleocyte Cell Assay (PBMC Assay - IL-17)", "conditions": "Homo sapiens, 48 h, IL-17A release, read-out: mean pIC50 (converted)", "protocol": "Peripheral Blood Mononucleocvte Cell Assay (PBMC Assay—IL-17) […]\nThis assay is designed to measure levels of IL-17A secreted from antiCD3/CD28 stimulated frozen Peripheral Blood Mononuclear cells (PBMC) isolated from human blood with the aim of identifying inhibitors of IL-17A release.\n2. The compounds for screening are dispensed into a master plate at 10 mM top concentration which are serially diluted 1:3 across 11 points in DMSO, then 500 nL is transferred into a 384-well flat-bottomed Greiner plate to which 50 uL of cell suspension is added: for the single shot screening the highest concentration of compound is 10^−5M; for 11 point full curve dose response studies the highest concentration is 10^−4 M.\nAs a low control, DMSO (as supplied, for example, by VWR) (final concentration 1%) in column 6 (16 points).\nAs a high control, 5-(4-fluorophenyl)-2-ureidothiophene-3-carboxamide (obtainable from, for example, Sigma) at a final concentration of 10^−4 M in DMSO should be used in column 18 (16 points).\n9. Make the cell suspension at the concentration 8×10^5 cells/mL to give a final number of 40,000 cells/well.\n1. Add well mixed CD3/CD28 Dynabeads (as supplied, for example, by Dynal) to achieve ratio bead:cell=2:1 (ie. a dilution of 1 in 20). Mix thoroughly.\n2. Dispense the suspension into the 384 Assay Plates using Multidrop (50 uL per well). If the volume of cell suspension is large, mix the suspension after dispensing into every other plate.\n3. Cover the plates with the lids and place them to the humidified incubator (37° C., 5% CO2) for 48 hours.\n1. Transfer 10 uL of supernatants from assay plates to the MSD plates using Cybiwell. Ensure that all wells are covered with the solution. Tap the plate gently, if some of the wells are not covered with the supernatant.\n3. Add 10 uL of MSD IL-17 detecting antibody using multidrop (1 ug/mL in D-PBS without Ca^2+ and Mg^2+ (supplied, for example, by Gibco)).\n4. Cover the plates with adhesive foil and incubated with shaking for 3 hours at room temperature\n7. Add 35 uL of MSD Read Buffer T×2 using multidrop.\n8. Read plates on MSD MA6000 reader using the 384 well plate protocol as per manufacturer's instructions."}, "IL-17A mRNA expression": {"system": "IL-17A mRNA expression", "assay": "Ex-vivo human skin model, IL-17A mRNA expression", "conditions": "for Percentage of inhibition of IL-17A mRNA expression: Th17 cytokine cocktail 24 h, RT-PCR"}, "IL-22 mRNA expression": {"system": "IL-22 mRNA expression", "assay": "Ex-vivo human skin model, IL-22 mRNA expression", "conditions": "for Percentage of inhibition of IL-22 mRNA expression: Th17 cytokine cocktail 24 h, RT-PCR"}, "[2]": {"conditions": "four different donors, compound 10 μM"}}, "note": "Marks after values point to notes of the source that are not given here."}
{"smiles": "CCc1ccc(N(CC(C)C)S(=O)(=O)c2ccc([C@@H](O)CN3CCOCC3)c(CO)c2)cc1", "note": "[Example E126, N-(4-ethylphenyl)-4-(1-hydroxy-2-morpholinoethyl)-3-(hydroxymethyl)-N-isobutylbenzenesulfonamide]", "values": [{"measurement": "IC50", "setting": "[1]", "result": 794, "unit": "nM"}, {"measurement": "Percentage of inhibition of IL-17A mRNA expression", "setting": "IL-17A mRNA expression; Skin Donor 1, compound 10 μM", "result": 76, "unit": "% *"}, {"measurement": "Percentage of inhibition of IL-17A mRNA expression", "setting": "IL-17A mRNA expression; Skin Donor 2, compound 10 μM", "result": 93, "unit": "% *"}, {"measurement": "Percentage of inhibition of IL-17A mRNA expression", "setting": "IL-17A mRNA expression; Skin Donor 3, compound 10 μM", "result": 60, "unit": "% *"}, {"measurement": "Percentage of inhibition of IL-17A mRNA expression", "setting": "IL-17A mRNA expression; Skin Donor 4, compound 10 μM", "result": 85, "unit": "% *"}, {"measurement": "gene transcription of il17a (result in words)", "setting": "IL-17A mRNA expression; [2]", "result": "inhibited"}, {"measurement": "Percentage of inhibition of IL-22 mRNA expression", "setting": "IL-22 mRNA expression; Skin Donor 1, compound 10 μM", "result": 67, "unit": "% *"}, {"measurement": "Percentage of inhibition of IL-22 mRNA expression", "setting": "IL-22 mRNA expression; Skin Donor 2, compound 10 μM", "result": 58, "unit": "%"}, {"measurement": "Percentage of inhibition of IL-22 mRNA expression", "setting": "IL-22 mRNA expression; Skin Donor 3, compound 10 μM", "result": 60, "unit": "%"}, {"measurement": "Percentage of inhibition of IL-22 mRNA expression", "setting": "IL-22 mRNA expression; Skin Donor 4, compound 10 μM", "result": 58, "unit": "% *"}, {"measurement": "gene transcription of il22 (result in words)", "setting": "IL-22 mRNA expression; [2]", "result": "inhibited"}]}
